Measurements as given in patent US20200064357A1, “METHODS FOR DETERMINING AND MONITORING GASTROINTESTINAL INFLAMMATION” (Protagonist Therapeutics, Inc., priority 2016, published 2020).

Test system: Sprague-Dawley rats
Assay: Biomarkers in colon of TNBS-induced acute colitis rats (Example E1)
Type: in vivo, rat
Conditions: protein by ELISA, vs vehicle treated controls, Peptide 993 65 mg/kg/day; for IL-22 level in colon / MPO level in colon: Peptide 980 37 mg/kg/day
Excerpt: The effect of treatment with peptide inhibitors of IL23R on inflammatory markers associated with IL23 signaling was examined in a rat model of acute colitis. Acute colitis was induced in Sprague-Dawley rats by a single intra-rectal instillation of 2,4,6-Trinitrobenzenesulfonic acid (TNBS) followed by efficacy analysis at day seven. Pharmacodynamic (PD) biomarkers were examined using enzyme-linked immunosorbent assay (ELISA), quantitative reverse transcription polymerase chain reaction, or immunohistochemistry analysis of colon, feces, or serum samples obtained from colitic rats treated with Peptide 993, Peptide 1185, or Peptide 980.
Acute colitis was induced by providing 7-week-old female Sprague-Dawley rats with various dosages of 64 mg/kg or 48 mg/kg of TNBS in 50% ethanol (TNBS/ethanol) administered intrarectally at Day 0. Peptide inhibitors were administered orally two or three times a day at various dosages and were provided in drinking water at various dosages, for 8 days starting approximately 24 hours (Day −1) prior TNBS inoculation.
Levels of a number of inflammatory biomarkers were examined in the colons. The distal colon tissue samples, designated for protein expression analysis, were flash frozen after collection. For protein extraction, the samples were thawed, weighed and homogenized in the extraction buffer (PBS pH 7.2 supplemented with Protease Inhibitors, 3× volume:weight). The homogenates were centrifuged at 13 krpm at 4° C. for 15 minutes, a total of two times to remove the debris. The supernatants were saved in multiple aliquots in −80° C. and subsequently used for protein expression analysis on ELISA. The total protein in each sample was quantified using BCA assay. MPO, IL-10, IL-6, IL-17A and IL-22 biomarker protein expression in the distal colon samples was analyzed using commercially available rat ELISA kits.

Molecule | IL-22 level in colon | MPO level in colon | IL-17A level in colon
Ac-cyclo[[Abu]-QTWQC]-[Phe[4-(2-aminoethoxy)]]-[2-Nal]-[4-amino-4-carboxy-tetrahydropyran]-ENN-NH2 [Peptide 980] | reduced | reduced | –
CC(=O)NCCCCC(NC(=O)C1(NC(=O)C(Cc2ccc3ccccc3c2)NC(=O)C(Cc2ccc(OCCN)cc2)NC(=O)C2NC(=O)C(CCC(N)=O)NC(=O)C(Cc3c[nH]c4ccccc34)NC(=O)C(C(C)O)NC(=O)C(CC(N)=O)NC(=O)C(NC(C)=O)C(C)(C)SSC2(C)C)CCOCC1)C(=O)NC(CC(N)=O)C(=O)NC(CC(N)=O)C(N)=O (centres unmarked) [Peptide 1185, Ac-cyclo[[Pen]-NTWQ-[Pen]]-[Phe[4-(2-aminoethoxy)]]-[2-Nal]-[4-amino-4-carboxy-tetrahydropyran]-[Lys(Ac)]-NN-NH2] | did not significantly reduce | did not significantly reduce | did not significantly reduce
